We go through two molecules from patent publication US10501805B2, “Methods for determining responsiveness to MEK/ERK inhibitors” (CROWN BIOSCIENCE, INC. (TAICANG), priority 2014, dated 2019).

What all share (experiment): CellTiter-Glo cell viability, IC50 determination
Holding throughout (format): cell-based

The test system of experiment [1] is Sk-Mel-5. The settings on record: Homo sapiens, 72 h; Sk-Mel-5 cell line; 3-day CTG assay; read-out: Absolute IC50. The method, then: (§1) All the cells will be cultured in the media supplemented with 10% FBS except for which are marked specially, in the temperature of 37° C., 5% CO2 and 95% humidity.
(§2) Cell viability is assayed by using CellTiter-Glo® Luminescent Cell Viability Assay Kit (Cat. No.: G7572, Promega. Store at −20° C.). To prepare the CellTiter_Glo Reagent, the CellTiter-Glo Buffer was thawed and equilibrated to room temperature prior to use. For convenience the CellTiter-Glo Buffer may be thawed and stored at room temperature for up to 48 hours prior to use. The lyophilized CellTiter-Glo Substrate is equilibrated to room temperature prior to use. The appropriate volume (100 ml) of CellTiter-Glo Buffer is transferred into the amber bottle containing CellTiter-Glo Substrate to reconstitute the lyophilized enzyme/substrate mixture, which forms the CellTiter-Glo Reagent. In certain cases, the entire liquid volume of the CellTiter-Glo Buffer bottle may be added to the CellTiter-Glo Substrate vial. Mix by gently vortexing, swirling or by inverting the contents to obtain a homogeneous solution. The CellTiter-Glo Substrate should go into solution easily in less than one minute.
(§3) The day before the experiment (Day −1), cells were dissociated during the logarithmic growth period with Cell Disassociation Buffer (Gibco 13151-014) and mixed with appropriate cell media and centrifuge at 1000 rpm for 3 minutes. The cells were re-suspended and counted using Countstar before adjusting cell concentrations to optimized density (i.e. 4.44×10^4 cells/ml) with respective culture medium listed in Table 1 for 3-day CTG assay (The cell density was optimized before actual study; cell density used in the test may vary for different cell lines). 90 μl cell suspensions were added to two 96-well plates (plates A and B) with the final cell density of 4×10^3 cells/well for 3-day CTG assay (the cell density was optimized before actual study; cell density used in the test may vary for different cell lines). The plate A and B group were incubated for overnight in humidified incubator at 37° C. with 5% CO2.
(§4) On Day 0, for plate A group, 10 μl culture medium was added to each well for T0 reading. CellTiter-Glo® Reagent was added at equal volume of cell culture medium present in each well (e.g., add 100 μl of reagent to 100 μl of medium containing cells for a 96-well plate). Contents were mixed for 2 minutes on an orbital shaker to facilitate cell lysis. The plate was allowed to incubate at room temperature for 10 minutes to stabilize luminescent signal. Backseal black sticker was added to the bottom of each plate. Luminescence was recorded using EnVision Multi Label Reader. This formed the basis for T0 value.
(§5) On Day 0, the test articles and positive controls were dissolved at the concentration indicated at Test Article Dilution map. 100× solution in PBS was prepared and then diluted with appropriate culture media (1:10) into 10×working solutions. 10 μl (10×) drug solutions were dispensed in each well (triplicate for each drug concentration) of the plate B group according to plate inoculation map. The test plates were incubated for […] in the humidified incubator at 37° with 5% CO2.
(§6) On Day 3, CellTiter-Glo® Reagent was added at equal volume of cell culture medium present in each well (e.g., add 100 μl of reagent to 100 μl of medium containing cells for a 96-well plate). Contents were mixed for 2 minutes on an orbital shaker to induce cell lysis. The plate was allowed to incubate at room temperature for 10 minutes to stabilize luminescent signal. Backseal black sticker was placed to the bottom of each plate. Luminescence was recorded using EnVision Multi Label Reader.
(§7) In order to calculate IC50s, a dose-response curve was fitted using a nonlinear regression model with a sigmoidal dose response. The formula for calculating surviving rate was shown below; Absolute IC50 is calculated where Y axis set at 50% using GraphPad Prism 5.0. Software. […]

Experiment [2] has as its system HCC4006. The conditions noted are these: Homo sapiens, 72 h; HCC4006 cell line; 3-day CTG assay; read-out: Absolute IC50. The method, then: as §1, §2, §3, §4, §5, §6, §7
Experiment [3] has as its system MIAPaCa2. The settings on record: Homo sapiens, MIA PaCa-2, 72 h; MIAPaCa2 cell line; 3-day CTG assay; read-out: Absolute IC50. Here is the method:
as §1, §2, §3, §4, §5, §6, §7

Experiment [4] deals with Calu6. The settings on record: Homo sapiens, Calu-6, 72 h; Calu6 cell line; 3-day CTG assay; read-out: Absolute IC50. Here is the method: as §1, §2, §3, §4, §5, §6, §7
Experiment [5] deals with RKO. The settings on record: Homo sapiens, 72 h; RKO cell line; 3-day CTG assay; read-out: Absolute IC50. Here is the method: as §1, §2, §3, §4, §5, §6, §7
In experiment [6] the test system is SNU-1. The settings on record: Homo sapiens, SNU1, 72 h; SNU-1 cell line; 3-day CTG assay; read-out: Absolute IC50. The method, then:
as §1, §2, §3, §4, §5, §6, §7

Experiment [7] deals with BxPc-3. The settings on record: Homo sapiens, 72 h; BxPc-3 cell line; 3-day CTG assay; read-out: Absolute IC50. Here is the method:
as §1, §2, §3, §4, §5, §6, §7

The subject of experiment [8] is DLD-1. The conditions noted are these: Homo sapiens, 72 h; DLD-1 cell line; 3-day CTG assay; read-out: Absolute IC50. Here is the method: as §1, §2, §3, §4, §5, §6, §7
For experiment [9], the system named is KM12L4. The conditions noted are these: KM 12L4, 72 h; KM12L4 cell line; 3-day CTG assay; read-out: Absolute IC50. The method, then:
as §1, §2, §3, §4, §5, §6, §7

Experiment [10] relates to 22RV1. The settings on record: Homo sapiens, 72 h; 22RV1 cell line; 3-day CTG assay; read-out: Absolute IC50. The method, then: as §1, §2, §3, §4, §5, §6, §7
Experiment [11] has as its system SW620. The settings on record: Homo sapiens, SW-620, 72 h; SW620 cell line; 3-day CTG assay; read-out: Absolute IC50. Here is the method: as §1, §2, §3, §4, §5, §6, §7
Experiment [12] concerns HM-7. The settings on record: 72 h; HM-7 cell line; 3-day CTG assay; read-out: Absolute IC50. The method, then:
as §1, §2, §3, §4, §5, §6, §7

Experiment [13] deals with HCT116. The settings on record: Homo sapiens, HCT-116, 72 h; HCT116 cell line; 3-day CTG assay; read-out: Absolute IC50. The method, then:
as §1, §2, §3, §4, §5, §6, §7

Experiment [14] concerns NCI-H1792. The settings on record: Homo sapiens, 72 h; NCI-H1792 cell line; 3-day CTG assay; read-out: Absolute IC50. The method, then:
as §1, §2, §3, §4, §5, §6, §7

The test system of experiment [15] is NCI-H1666. The settings on record: Homo sapiens, 72 h; NCI-H1666 cell line; 3-day CTG assay; read-out: Absolute IC50. The method, then:
as §1, §2, §3, §4, §5, §6, §7

The test system of experiment [16] is PL45. The settings on record: 72 h; PL45 cell line; 3-day CTG assay; read-out: Absolute IC50. Here is the method:
as §1, §2, §3, §4, §5, §6, §7

Regarding `CC(=O)Nc1cccc(-n2c(=O)n(C3CC3)c(=O)c3c(Nc4ccc(I)cc4F)n(C)c(=O)c(C)c32)c1` [Trametinib, N-(3-{3-Cyclopropyl-5-[(2-fluoro-4-iodophenyl)amino]-6,8-dimethyl-2,4,7-trioxo-3,4,6,7-tetrahydropyrido[4,3-d]pyrimidin-1(2H)-yl}phenyl)acetamide], the IC50 turned out to be 10 nM in [1]; 410 nM in experiment [2]; 30 nM in experiment [3]; 140 nM in experiment [4]; 6.7 µM in experiment [5]; 100 nM in [6]. Moreover, the IC50 amounted to 30 nM in experiment [7]; 6.52 µM in [8]; 10 nM in experiment [9]; 202 µM in experiment [10]; 10 nM in experiment [11]; 390 nM in [12]. Also, the IC50 in [13] is 40 nM; in experiment [14], 160 nM; in experiment [15] it was 130 nM; in experiment [16] it was 120 nM.

Regarding `O=C(Nc1ccc2[nH]nc(-c3ccncc3)c2c1)[C@@H]1CCN(CC(=O)N2CCN(c3ccc(-c4ncccn4)cc3)CC2)C1` [SCH772984, (R)-1-(2-oxo-2-(4-(4-(pyrimidin-2-yl)phenyl)piperazin-1-yl)ethyl)-N-(3-(pyridin-4-yl)-1H-indazol-5-yl)pyrrolidine-3-carboxamide], the IC50 in [1] was 200 nM; in [2], 2770 nM; in experiment [3] it was 210 nM; in [4], 560 nM; in experiment [5], 17.5 µM; in experiment [6] it was 640 nM. Besides, the IC50 stood at 320 nM in experiment [7]; 52.8 µM in experiment [8]; 360 nM in experiment [9]; 5.01 µM in experiment [10]; 260 nM in experiment [11]; 790 nM in experiment [12]. Besides, the IC50 in experiment [13] amounted to 450 nM; in [14] it was 4700 nM; in experiment [15], 920 nM; in [16], 660 nM.
